Measurements reported in PubChem BioAssay (NCI).
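A five-concentration, 48-hour dose response in 96-well plates underlies each endpoint, interpolated linearly between surrounding concentrations. TGI: concentration producing complete growth inhibition.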

Tests used:
Test in all cases: DTP human tumour cell line panel, 48 h
OVCAR-4 ovarian = test system: OVCAR-4 ovarian
NCI-H522 lung = test system: NCI-H522 lung
LOX IMVI melanoma = test system: LOX IMVI melanoma
MDA-N = test system: MDA-N
SK-OV-3 ovarian = test system: SK-OV-3 ovarian
UACC-62 melanoma = test system: UACC-62 melanoma
MALME-3M melanoma = test system: MALME-3M melanoma
UO-31 renal = test system: UO-31 renal
SF-268 CNS = test system: SF-268 CNS
CAKI-1 renal = test system: CAKI-1 renal
HOP-62 NSCLC = test system: HOP-62 NSCLC
CCRF-CEM leukemia = test system: CCRF-CEM leukemia
M14 melanoma = test system: M14 melanoma
PC-3 prostate = test system: PC-3 prostate
SNB-75 CNS = test system: SNB-75 CNS
RXF 393 renal = test system: RXF 393 renal
NCI-H460 lung = test system: NCI-H460 lung
BT-549 breast = test system: BT-549 breast
HCT-116 colon = test system: HCT-116 colon
SN12C renal = test system: SN12C renal
TK-10 renal = test system: TK-10 renal
NCI/ADR-RES ovarian = test system: NCI/ADR-RES ovarian
MDA-MB-435 = test system: MDA-MB-435
KM12 colon = test system: KM12 colon
A549 NSCLC = test system: A549 NSCLC
SW-620 colon = test system: SW-620 colon
U251 CNS = test system: U251 CNS
SK-MEL-5 melanoma = test system: SK-MEL-5 melanoma
A498 renal = test system: A498 renal
COLO 205 colon = test system: COLO 205 colon
MCF7 breast = test system: MCF7 breast
OVCAR-8 ovarian = test system: OVCAR-8 ovarian
SK-MEL-2 melanoma = test system: SK-MEL-2 melanoma
786-0 renal = test system: 786-0 renal
HS 578T breast = test system: HS 578T breast
SF-295 CNS = test system: SF-295 CNS
SK-MEL-28 melanoma = test system: SK-MEL-28 melanoma
ACHN renal = test system: ACHN renal
HCC-2998 colon = test system: HCC-2998 colon
NCI-H23 lung = test system: NCI-H23 lung
T-47D breast = test system: T-47D breast
SF-539 CNS = test system: SF-539 CNS
UACC-257 melanoma = test system: UACC-257 melanoma
HT29 colon = test system: HT29 colon
NCI-H226 lung = test system: NCI-H226 lung
DU-145 prostate = test system: DU-145 prostate
RPMI-8226 leukemia = test system: RPMI-8226 leukemia
HCT-15 colon = test system: HCT-15 colon
MDA-MB-231 breast = test system: MDA-MB-231 breast
HOP-92 NSCLC = test system: HOP-92 NSCLC
OVCAR-3 ovarian = test system: OVCAR-3 ovarian
EKVX NSCLC = test system: EKVX NSCLC
SNB-19 CNS = test system: SNB-19 CNS
K-562 leukemia = test system: K-562 leukemia
IGROV1 ovarian = test system: IGROV1 ovarian
MOLT-4 leukemia = test system: MOLT-4 leukemia
OVCAR-5 ovarian = test system: OVCAR-5 ovarian
HL-60(TB) leukemia = test system: HL-60(TB) leukemia

Cn1c(=O)c2ccccc2c2ccccc21
TGI (OVCAR-4 ovarian): > 100 µM | TGI (NCI-H522 lung): > 100 µM | TGI (LOX IMVI melanoma): > 100 µM | TGI (MDA-N): > 100 µM | TGI (SK-OV-3 ovarian): 94.1 µM | TGI (UACC-62 melanoma): > 100 µM | TGI (MALME-3M melanoma): > 100 µM | TGI (UO-31 renal): > 100 µM | TGI (SF-268 CNS): > 100 µM | TGI (CAKI-1 renal): 89.8 µM | TGI (HOP-62 NSCLC): > 100 µM | TGI (CCRF-CEM leukemia): > 100 µM | TGI (M14 melanoma): > 100 µM | TGI (PC-3 prostate): > 100 µM | TGI (SNB-75 CNS): > 100 µM | TGI (RXF 393 renal): > 100 µM | TGI (NCI-H460 lung): > 100 µM | TGI (BT-549 breast): > 100 µM | TGI (HCT-116 colon): > 100 µM | TGI (SN12C renal): > 100 µM | TGI (TK-10 renal): > 100 µM | TGI (NCI/ADR-RES ovarian): > 100 µM | TGI (MDA-MB-435): > 100 µM | TGI (KM12 colon): > 100 µM | TGI (A549 NSCLC): > 100 µM | TGI (SW-620 colon): > 100 µM | TGI (U251 CNS): > 100 µM | TGI (SK-MEL-5 melanoma): 95.7 µM | TGI (A498 renal): 93.8 µM | TGI (COLO 205 colon): > 100 µM | TGI (MCF7 breast): > 100 µM | TGI (OVCAR-8 ovarian): > 100 µM | TGI (SK-MEL-2 melanoma): > 100 µM | TGI (786-0 renal): > 100 µM | TGI (HS 578T breast): > 100 µM | TGI (SF-295 CNS): > 100 µM | TGI (SK-MEL-28 melanoma): > 100 µM | TGI (ACHN renal): > 100 µM | TGI (HCC-2998 colon): > 100 µM | TGI (NCI-H23 lung): > 100 µM | TGI (T-47D breast): > 100 µM | TGI (SF-539 CNS): > 100 µM | TGI (UACC-257 melanoma): > 100 µM | TGI (HT29 colon): > 100 µM | TGI (NCI-H226 lung): > 100 µM | TGI (DU-145 prostate): > 100 µM | TGI (RPMI-8226 leukemia): > 100 µM | TGI (HCT-15 colon): > 100 µM | TGI (MDA-MB-231 breast): > 100 µM | TGI (HOP-92 NSCLC): > 100 µM | TGI (OVCAR-3 ovarian): > 100 µM | TGI (EKVX NSCLC): 63.1 µM | TGI (SNB-19 CNS): > 100 µM

CC(=O)OC1CC(OC2C(O)CC(OC3C(O)CC(OC4CCC5(C)C(CCC6C5CCC5(C)C(C7=CC(=O)OC7)C(O)CC65O)C4)OC3C)OC2C)OC(C)C1OC1OC(CO)C(O)C(O)C1O (stereo unspecified)
TGI (NCI-H522 lung): 1.2 µM | TGI (LOX IMVI melanoma): 1.14 µM | TGI (MDA-N): 1.77 µM | TGI (SK-OV-3 ovarian): 2.1 µM | TGI (UACC-62 melanoma): 1.98 µM | TGI (MALME-3M melanoma): 1.85 µM | TGI (UO-31 renal): 1.46 µM | TGI (SF-268 CNS): 2.48 µM | TGI (CAKI-1 renal): 0.461 µM | TGI (K-562 leukemia): > 100 µM | TGI (HOP-62 NSCLC): 0.483 µM | TGI (IGROV1 ovarian): 3.58 µM | TGI (CCRF-CEM leukemia): > 100 µM | TGI (M14 melanoma): 2.31 µM | TGI (PC-3 prostate): 1.55 µM | TGI (SNB-75 CNS): 2.97 µM | TGI (NCI-H460 lung): 0.491 µM | TGI (BT-549 breast): 1.26 µM | TGI (HCT-116 colon): 0.91 µM | TGI (SN12C renal): 1.32 µM | TGI (TK-10 renal): 2.14 µM | TGI (MOLT-4 leukemia): > 100 µM | TGI (NCI/ADR-RES ovarian): 0.755 µM | TGI (MDA-MB-435): 2.08 µM | TGI (KM12 colon): 1.94 µM | TGI (A549 NSCLC): 0.244 µM | TGI (SW-620 colon): 1.45 µM | TGI (U251 CNS): 1.45 µM | TGI (SK-MEL-5 melanoma): 1.06 µM | TGI (A498 renal): 2.13 µM | TGI (COLO 205 colon): 2.13 µM | TGI (MCF7 breast): 15.8 µM | TGI (OVCAR-8 ovarian): 1.56 µM | TGI (SK-MEL-2 melanoma): 2.16 µM | TGI (OVCAR-5 ovarian): 1.72 µM | TGI (786-0 renal): 0.943 µM | TGI (HS 578T breast): > 100 µM | TGI (SF-295 CNS): 1.43 µM | TGI (SK-MEL-28 melanoma): 3.61 µM | TGI (ACHN renal): 0.942 µM | TGI (HCC-2998 colon): 4.09 µM | TGI (NCI-H23 lung): 0.424 µM | TGI (T-47D breast): 3.32 µM | TGI (SF-539 CNS): 0.421 µM | TGI (UACC-257 melanoma): 1.88 µM | TGI (HT29 colon): 1.76 µM | TGI (NCI-H226 lung): 2.66 µM | TGI (DU-145 prostate): 0.684 µM | TGI (RPMI-8226 leukemia): 5.7 µM | TGI (HL-60(TB) leukemia): 0.577 µM | TGI (HCT-15 colon): 1.16 µM | TGI (MDA-MB-231 breast): 6.42 µM | TGI (HOP-92 NSCLC): 3.17 µM | TGI (OVCAR-3 ovarian): 1.24 µM | TGI (EKVX NSCLC): 0.803 µM | TGI (SNB-19 CNS): 2.19 µM

CCSc1cc(C(=O)OC)c2n(c1=O)CCCC2
TGI (OVCAR-4 ovarian): > 100 µM | TGI (NCI-H522 lung): > 100 µM | TGI (LOX IMVI melanoma): > 100 µM | TGI (MDA-N): > 100 µM | TGI (SK-OV-3 ovarian): > 100 µM | TGI (UACC-62 melanoma): > 100 µM | TGI (MALME-3M melanoma): > 100 µM | TGI (UO-31 renal): > 100 µM | TGI (SF-268 CNS): > 100 µM | TGI (CAKI-1 renal): > 100 µM | TGI (HOP-62 NSCLC): > 100 µM | TGI (IGROV1 ovarian): > 100 µM | TGI (CCRF-CEM leukemia): > 100 µM | TGI (M14 melanoma): > 100 µM | TGI (PC-3 prostate): > 100 µM | TGI (SNB-75 CNS): > 100 µM | TGI (RXF 393 renal): > 100 µM | TGI (BT-549 breast): > 100 µM | TGI (HCT-116 colon): > 100 µM | TGI (SN12C renal): > 100 µM | TGI (TK-10 renal): > 100 µM | TGI (MOLT-4 leukemia): > 100 µM | TGI (NCI/ADR-RES ovarian): > 100 µM | TGI (MDA-MB-435): > 100 µM | TGI (KM12 colon): > 100 µM | TGI (A549 NSCLC): > 100 µM | TGI (SW-620 colon): > 100 µM | TGI (U251 CNS): > 100 µM | TGI (SK-MEL-5 melanoma): > 100 µM | TGI (A498 renal): > 100 µM | TGI (COLO 205 colon): > 100 µM | TGI (MCF7 breast): > 100 µM | TGI (OVCAR-8 ovarian): > 100 µM | TGI (SK-MEL-2 melanoma): > 100 µM | TGI (OVCAR-5 ovarian): > 100 µM | TGI (786-0 renal): > 100 µM | TGI (HS 578T breast): > 100 µM | TGI (SF-295 CNS): > 100 µM | TGI (SK-MEL-28 melanoma): > 100 µM | TGI (ACHN renal): > 100 µM | TGI (NCI-H23 lung): > 100 µM | TGI (T-47D breast): > 100 µM | TGI (SF-539 CNS): > 100 µM | TGI (UACC-257 melanoma): > 100 µM | TGI (HT29 colon): > 100 µM | TGI (NCI-H226 lung): > 100 µM | TGI (DU-145 prostate): > 100 µM | TGI (HL-60(TB) leukemia): > 100 µM | TGI (HCT-15 colon): > 100 µM | TGI (MDA-MB-231 breast): > 100 µM | TGI (EKVX NSCLC): > 100 µM | TGI (SNB-19 CNS): > 100 µM
